{"source": "patent US10596223B2", "about": "“JNK inhibitor molecules for treatment of various diseases” (Xigen Inflammation Ltd., priority 2011, dated 2020)", "key": {"[1]": {"test_system": "THP1-PMA-differentiated macrophages", "assay": "LPS-induced cytokine and chemokine release in PMA differentiated THP1 macrophages (ELISA)", "assay_type": "cell-based, human", "description": "In the following the procedure will be set forth describing how the released amount of several human cytokines after ligand induced secretion from human cells (Blood, WBC, PBMC, purified primary lymphocytes, cell lines, . . . ) was measured.\nThe technique used is a Sandwich ELISA, which allows measuring the amount of antigen between two layers of antibodies (i.e. capture and detection antibody). The antigen to be measured must contain at least two antigenic sites capable of binding to antibody, since at least two antibodies act in the sandwich. Either monoclonal or polyclonal antibodies can be used as the capture and detection antibodies in Sandwich ELISA systems. Monoclonal antibodies recognize a single epitope that allows fine detection and quantification of small differences in antigen. A polyclonal is often used as the capture antibody to pull down as much of the antigen as possible.\nThe method may be used to determine the effect of the JNK inhibitors of the present invention in vitro/cell culture. At non toxic doses, compound efficacy is indicated by the decrease of the cytokine levels (the variation of optical density (absorbance at 450 nm)) as compared to non-treated samples and is monitored by ELISA. Results are express in ng/ml.\nIn the following the procedure will be set forth describing how cytokine production from human PMA differentiated THP1 cells challenged by LPS for 6 h was induced in order to test the ability of JNK inhibitors of the present invention, in particular of a JNK inhibitor with SEQ ID NO: 172, to reduce stimulation-induced cytokine release. THP1 cells were stimulated ex-vivo by different ligands for the readout of cytokine release. At non toxic doses, JNK inhibitor efficacy is indicated by the decrease of the cytokine levels as compared to non-treated samples and is monitored by ELISA. The toxicity of the compound are evaluated by the reduction of a tretazolium salt (MTS) to formazan, giving a purple colour.\na. Material • Cell Line: THP-1 (Ref TIB-202, ATCC, lot 57731475) • Culture medium, reagent and plates • RPMI (Ref 21875-091, Invitrogen) complemented with: • 10% FBS (Ref A15-151, PAA): decomplemented at 56° C., 30 min. • 10 mM Hepes (Ref H0887, Sigma) • 50 μM β-mercaptoethanol (Ref 63690, Fluka: stock at 14.3M): add 560 μl of 50 mM aliquots in PBS stocked at −20° C.) • 1 mM Sodium Pyruvate (Ref 58636, Sigma) • Penicilline (100 unit/ml)/Streptomycine (100 μg/ml) (Ref P4333, Sigma) • The RPMI medium is then filtrated with a […] (Ref SCGPU05RE, Millipore). • PBS 10× (Ref 70011, Invitrogen): diluted to 1× with sterile H2O • DMSO: Ref 41444, Fluka • PMA (phorbol 12-myristate 13-acetate, Ref P1585, Sigma, concentration 1 mM=616.8 ug/ml in DMSO at −20° C.). […]"}, "primary human T-cells": {"test_system": "primary human T-cells", "assay": "IL2 secretion by primary human T-cells", "assay_type": "cell-based", "excerpt": "The JNK inhibitors used are indicated by their SEQ ID NO: 172 and 197."}, "[2]": {"test_system": "established type II collagen arthritis in rats", "assay_type": "in vivo, rat", "excerpt": "Rat collagen arthritis is an experimental model of polyarthritis that has been widely used for preclinical testing of numerous anti-arthritic agents that are either under preclinical or clinical investigation or are currently used as therapeutics in this disease. The hallmarks of this model are reliable onset and progression of robust, easily measurable polyarticular inflammation, marked cartilage destruction in association with pannus formation, and mild to moderate bone resorption and periosteal bone proliferation.\nIntravenous (IV) efficacy of the JNK inhibitor of SEQ ID NO: 172 administered daily (QD) for 14 days (arthritis d1-14) for inhibition of the inflammation (paw swelling), cartilage destruction, and bone resorption that occurs in established type II collagen arthritis in rats was determined in said experimental model. […]\nFemale Lewis rats with established type II collagen arthritis were treated daily (QD) on arthritis days 1-14 by the intravenous (IV) route with vehicle (NaCl), SEQ ID NO: 172 (0.01, 0.1, 1, or 5 mg/kg), or the reference compound dexamethasone (Dex, 0.05 mg/kg). […] Efficacy evaluation was based on animal body weights, daily ankle caliper measurements, ankle diameter expressed as area under the curve (AUC), terminal hind paw weights, and histopathologic evaluation of ankles and knees of selected groups. […]"}, "[3]": {"conditions": "THP1 differentiated macrophages, LPS 6 h (10 ng/ml)"}}, "note": "Square brackets hold non-standard residues; d marks the D form. Peptide text beside a SMILES is read from it."}
{"smiles": "CC(C)C[C@H](NC(=O)[C@H](CC(N)=O)NC(=O)[C@H](CC(C)C)NC(=O)[C@@H](NC(=O)[C@@H](C)NC(=O)[C@@H]1CCCN1C(=O)[C@H](CCCNC(=N)N)NC(=O)[C@@H](CCCCN)NC(=O)[C@@H]1CCCN1C(=O)[C@H](CCCNC(=N)N)NC(=O)[C@@H](CCCNC(=N)N)NC(=O)[C@H](CCCNC(=N)N)NC(=O)[C@H](CCCNC(=N)N)NC(=O)[C@H](CCC(N)=O)NC(=O)[C@@H](CCCNC(=N)N)NC(=O)[C@H](CCCNC(=N)N)NC(=O)[C@H](CCCCN)NC(=O)[C@H](CCCCN)NC(=O)[C@H](N)CCCNC(=N)N)[C@@H](C)O)C(=O)N[C@H](Cc1ccccc1)C(N)=O", "note": "[SEQ ID NO: 172, rKKRrQRRrRPkRPaTLNLf] (H-[dR]KKR[dR]QRR[dR]RP[dK]RP[dA]TLNL[dF]-NH2; N-terminus assumed)", "values": [{"measurement": "LPS-induced TNFα release, potency comparison", "setting": "[1]; PMA differentiated macrophages", "value": "higher potency than D-TAT-IB1 (SEQ ID NO: 197) and L-TAT-IB1 (SEQ ID NO: 196)"}, {"measurement": "LPS-induced IL-6 release, potency comparison", "setting": "[1]; PMA differentiated macrophages, LPS 6 h", "value": "higher potency than D-TAT-IB1 (SEQ ID NO: 197) and L-TAT-IB1 (SEQ ID NO: 196)"}, {"measurement": "LPS-induced IL6 release, potency comparison", "setting": "[1]; [3]", "value": "higher potency than D-TAT-IB1 (SEQ ID NO: 197), dTAT (SEQ ID NO: 45) and SP 600125"}, {"measurement": "LPS-induced TNFα release, potency comparison", "setting": "[1]; [3]", "value": "higher potency than D-TAT-IB1 (SEQ ID NO: 197), dTAT (SEQ ID NO: 4.5) and SP 600125"}, {"measurement": "IL2 secretion in response to CD3/CD28 stimulation", "setting": "primary human T-cells", "value": "blocks IL2 secretion"}, {"measurement": "IL2 secretion in response to PMA/Ionomycin", "setting": "primary human T-cells", "value": "blocks IL2 secretion"}, {"measurement": "clinical and histopathology parameters (conclusion)", "setting": "[2]; 5 mg/kg IV QD 14 days", "value": "significant beneficial effect on the clinical and histopathology parameters"}, {"measurement": "daily ankle diameter measurements vs disease controls", "setting": "[2]; 5 mg/kg IV QD, p<0.05 days 4-12", "value": "reduced toward normal"}]}
